Results: article PMC9504208, “Comprehensive Study of Antiretroviral Drug Permeability at the Cervicovaginal Mucosa via an In Vitro Model” (Pharmaceutics, 2022)

Assays:
Format in all cases: cell-based, human
VK2/E6E7 cells = experiment: Intracellular accumulation of digoxin in cytokine-stimulated VK2/E6E7 cells; settings: 5 µM digoxin, 1 h; after cytokine stimulation
Procedure: A 500 μL sample from each well was stored and the remainder of the buffer was aspirated from the plates. The wells were then washed twice with ice-cold PBS to stop any further uptake of the drug. To each well, 500 μL of ddH2O was added and cells were removed using a cell scraper. The cell suspension was then transferred to individual tubes for mechanical cell lysis using a 21-gauge needle followed by a freeze-thaw cycle at -80 °C. Protein content for normalisation calculations was measured via a bicinchoninic acid assay. The solution was then centrifuged at 14,000× g for 15 min and the supernatants were stored at -80 °C until analysis by LC-MS/MS. Samples were centrifuged at 14,800 rpm for 5 min to remove cell debris. […] Analysis was performed on a Thermo Surveyor TSQ Quantum system using electrospray ionisation in positive ion mode. Samples (5 μL) were applied to a C18 column (Gemini 3μ, 150 × 3.0 mm, Phenomenex, Macclesfield, UK) maintained at 40 °C. […] The flow rate for both methods was 350 μL/min. […] Cytokines were reconstituted in sterile and distilled water and added individually to cell cultures at the following concentrations: TNF-α (200 pg/mL), IL-1β (8 ng/mL), IL-6 (5 ng/mL) and IL-8 (100 ng/mL) were. […] Cells were stimulated for either drugs, cytokines or hormones for 72 h, before harvesting by centrifugation at 300× g for 10 min at 4 °C. […] All cell line stimulation experiments were conducted as a minimum of three biological repeats.

[1] = test system: drug transporter mRNA expression in HEC-1A cells; experiment: Drug transporter mRNA expression (RT-qPCR) in stimulated HEC-1A cells; settings: 72 h stimulation
Procedure: (§1) Control was 0.1% DMSO with no drug. Cytokines were reconstituted in sterile and distilled water and added individually to cell cultures at the following concentrations: TNF-α (200 pg/mL), IL-1β (8 ng/mL), IL-6 (5 ng/mL) and IL-8 (100 ng/mL) were. […] Cells were stimulated for either drugs, cytokines or hormones for 72 h, before harvesting by centrifugation at 300× g for 10 min at 4 °C. For Lactobacillus crispatus a final MoI of 10 was used (10:1, bacterial cells:mammalian cell ratio) for co-culture in both HEC-1A and VK2/E6E7 cell lines. For Candida albicans, a final MoI of 1 for HEC-1A cells and 0.25 for VK2/E6E7 cells was used. Cells were incubated with fungal cells at 37 °C/5% CO2 for 24 h. All cell line stimulation experiments were conducted as a minimum of three biological repeats.
(§2) RNA extraction was performed using the RNeasy® Mini Kit (Qiagen, Manchester, UK). Cells were lysed by suspension in 600 μL of RLT Buffer with 1% β-mercaptoethanol (Sigma-Aldrich) and mechanical lysis into a QIAshredder (Qiagen). After the addition of 70% ethanol, the solution was loaded onto RNeasy columns for RNA purification as per the manufacturer’s instructions. DNase treatment was 15 min at room temperature. RNA was eluted from the columns with 30 μL of RNase-free ddH2O. Tapestation analysis was performed using an Agilent 2200 Tapestation system to determine the integrity of the RNA.
(§3) Synthesis of cDNA was performed using a Superscript® VILO™ kit (Life Technologies, Paisley, UK). Reverse transcription was performed at 25 °C for 10 min, 42 °C for 60 min and 85 °C for 5 min. The cDNA was then stored at −20 °C until RT-PCR assays.
(§4) SYBRgreen® PrecisionTM 2× qPCR Mastermix with ROX quencher (Primer Design, Southampton, UK) was used for all RT-qPCR assays. Individual primers were designed to target the HPRT1 and RPLP0 housekeeper genes (selected from an initial panel based on SD scores as a measure of the consistency of expression amongst all samples) in addition to seventeen ARV-associated drug transporters (9 ABC transporters and 8 SLC transporters) replicating the system contained in the TaqMan® 96-well Drug Transporter Array system (Life Technologies, Paisley, UK). Real-time quantitative PCR was performed using the 7900HT Fast Real-Time PCR system and data was analysed using the SDS 2.4 software (Applied Biosystems, Waltham, MA, USA). Cycling conditions were: 95 °C for 5 min, followed by 40 cycles of denaturation at 95 °C for 10 s, annealing at 60 °C for 10 s and extension at 72 °C for 10 s. Relative transcript levels in drug-stimulated cells were determined using the comparative Ct method (ΔΔCt method). Fold-change values of ±2–3 were considered minor, ±3–5 as moderate and >±5 as high.

[2] = test system: drug transporter mRNA expression in VK2/E6E7 cells; experiment: Drug transporter mRNA expression (RT-qPCR) in stimulated VK2/E6E7 cells; settings: 72 h cytokine stimulation
Procedure: as §1, §2, §3, §4

HEC-1A cells = experiment: Cytokine production of HEC-1A cells stimulated with PAMPs (Luminex); settings: for Pro-inflammatory cytokine production: 24 h stimulation
Procedure: HEC-1A cells were stimulated with different PAMPs (pam 3CSK4, lipoteichoic acid, poly(I:C), Escherichia coli lipopolysaccharide, FSL-1, flagellin, imiquimod, zymosan) (InvivoGen, San Diego, CA, USA) diluted in cell culture media with incubation at 37 °C in 5% CO2 for 24 h. PAMPs were titrated to determine the optimal concentration for cytokine stimulation. Blank samples contained media only. After 24 h, the supernatant was collected for cytokine detection. Cytokine levels were determined using a Magnetic Luminex® Performance Assay kit (R&D Systems, Minneapolis, MN, USA) following the manufacturer’s instructions. Analyte-specific antibodies were pre-coated onto colour-coded microparticles and detection was carried out with a biotinylated antibody cocktail specific to the target cytokines and a streptavidin-phycoerythrin conjugate. Samples were resuspended in 100 µL of Washing Buffer and measured for a phycoerythrin-derived signal using a Luminex® 100 instrument.

IL-6: pro-inflammatory cytokine
Effect on intracellular uptake of digoxin (VK2/E6E7 cells): not
Change in expression of drug transporters (panel of 17) [1]: No changes
Expression of uptake transporters OATP8 and CNT3 [2]: induce the expression
P-gp mRNA level [2]: increased

TNF-α
Effect on intracellular uptake of digoxin (VK2/E6E7 cells): significantly reduced
Change in expression of drug transporters (panel of 17) [1]: No changes
Expression of uptake transporters OATP8 and CNT3 [2]: induce the expression
P-gp mRNA level [2]: increased

poly(I:C)
Pro-inflammatory cytokine production (HEC-1A cells): induced production of IL-6, IL-8, IL-1α, GM-CSF and TNF-α
Optimum concentration for cytokine stimulation (HEC-1A cells; titration 1–50 µg/ml): 25 µg/mL

IL-1β: pro-inflammatory cytokine
Effect on intracellular uptake of digoxin (VK2/E6E7 cells): significantly reduced
Change in expression of drug transporters (panel of 17) [1]: No changes
Expression of uptake transporters OATP8 and CNT3 [2]: induce the expression
P-gp mRNA level [2]: increased

flagellin
Pro-inflammatory cytokine production (HEC-1A cells): stimulated production of IL-8, GM-CSF and TNF-α
